Reference: ChEMBL document CHEMBL4819054, “Rotenoids and Other Specialized Metabolites from the Roots of Mirabilis multiflora: Opioid and Cannabinoid Receptor Radioligand Binding Affinities” (J Nat Prod, 2021)
Calls of active or inactive are those of the source. The rule behind the calls is not given here.

Legend:
Conditions in all cases: Membrane
[1] = target: Delta-type opioid receptor (Homo sapiens) (UniProt P41143); test: Displacement of [3H]-DPDPE from human delta opioid receptor expressed in CHO-K1 cell membranes at 10 uM incubated for 60 mins by TopCount scintillation counting method relative to control
Sequence of Delta-type opioid receptor (Homo sapiens) (P41143 whole entry): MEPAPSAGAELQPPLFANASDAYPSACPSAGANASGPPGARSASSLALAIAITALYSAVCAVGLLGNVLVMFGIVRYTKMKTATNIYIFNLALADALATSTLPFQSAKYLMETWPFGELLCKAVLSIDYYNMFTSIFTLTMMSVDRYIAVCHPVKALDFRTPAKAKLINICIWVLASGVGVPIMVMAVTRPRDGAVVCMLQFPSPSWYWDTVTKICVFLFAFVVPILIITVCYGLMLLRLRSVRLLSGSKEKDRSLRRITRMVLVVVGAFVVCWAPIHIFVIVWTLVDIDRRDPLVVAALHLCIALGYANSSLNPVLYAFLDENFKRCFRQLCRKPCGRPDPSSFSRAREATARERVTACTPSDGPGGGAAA

[2] = target: Cannabinoid receptor 1 (Homo sapiens) (UniProt P21554); test: Displacement of [3H]-CP-55,940 from full-length recombinant human CB1R expressed in CHO-K1 cell membranes at 10 uM incubated for 90 mins by TopCount scintillation counting method relative to control
Sequence of Cannabinoid receptor 1 (Homo sapiens) (P21554 whole entry): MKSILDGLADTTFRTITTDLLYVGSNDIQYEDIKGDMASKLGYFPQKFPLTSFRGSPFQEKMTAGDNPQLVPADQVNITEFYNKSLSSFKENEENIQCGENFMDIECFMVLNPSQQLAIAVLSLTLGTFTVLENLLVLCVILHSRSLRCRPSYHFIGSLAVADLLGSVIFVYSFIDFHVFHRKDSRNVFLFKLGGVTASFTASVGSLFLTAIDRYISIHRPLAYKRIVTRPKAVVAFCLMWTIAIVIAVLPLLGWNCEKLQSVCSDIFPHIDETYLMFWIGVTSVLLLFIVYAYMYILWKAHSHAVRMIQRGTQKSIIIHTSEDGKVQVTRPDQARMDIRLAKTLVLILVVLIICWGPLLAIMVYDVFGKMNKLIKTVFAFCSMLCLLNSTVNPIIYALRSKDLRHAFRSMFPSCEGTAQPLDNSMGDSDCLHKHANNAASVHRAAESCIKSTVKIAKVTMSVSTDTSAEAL

[3] = target: Kappa-type opioid receptor (Homo sapiens) (UniProt P41145); test: Displacement of [3H]-U69593 from human kappa opioid receptor expressed in CHO-K1 cell membranes at 10 uM incubated for 60 mins by TopCount scintillation counting method relative to control
Sequence of Kappa-type opioid receptor (Homo sapiens) (P41145 whole entry): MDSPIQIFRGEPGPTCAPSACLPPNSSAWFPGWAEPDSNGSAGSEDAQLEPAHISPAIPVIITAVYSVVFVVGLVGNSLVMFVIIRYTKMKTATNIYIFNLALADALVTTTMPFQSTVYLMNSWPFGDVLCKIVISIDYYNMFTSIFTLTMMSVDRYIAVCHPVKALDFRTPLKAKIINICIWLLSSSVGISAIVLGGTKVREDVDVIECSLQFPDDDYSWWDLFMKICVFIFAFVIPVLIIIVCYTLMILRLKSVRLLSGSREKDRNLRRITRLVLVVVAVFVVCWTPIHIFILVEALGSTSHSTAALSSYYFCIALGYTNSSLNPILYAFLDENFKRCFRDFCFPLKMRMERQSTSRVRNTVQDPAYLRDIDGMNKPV

[4] = target: Cannabinoid receptor 2 (Homo sapiens) (UniProt P34972); test: Displacement of [3H]-CP-55,940 from full-length recombinant human CB2R expressed in CHO-K1 cell membranes at 10 uM incubated for 90 mins by TopCount scintillation counting method relative to control
Sequence of Cannabinoid receptor 2 (Homo sapiens) (P34972 whole entry): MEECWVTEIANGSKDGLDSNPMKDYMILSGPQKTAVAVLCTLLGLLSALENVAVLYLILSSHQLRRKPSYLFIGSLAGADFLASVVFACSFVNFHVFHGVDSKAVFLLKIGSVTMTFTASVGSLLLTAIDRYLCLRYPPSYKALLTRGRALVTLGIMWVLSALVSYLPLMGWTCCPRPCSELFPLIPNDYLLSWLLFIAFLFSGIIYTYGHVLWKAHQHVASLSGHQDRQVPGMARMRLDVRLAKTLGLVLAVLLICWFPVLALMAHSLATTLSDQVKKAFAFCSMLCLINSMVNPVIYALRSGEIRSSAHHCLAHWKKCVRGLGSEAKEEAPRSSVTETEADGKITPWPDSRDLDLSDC

[5] = target: Mu-type opioid receptor (Homo sapiens) (UniProt P35372); test: Displacement of [3H]-DAMGO from human mu opioid receptor expressed in CHO-K1 cell membranes at 10 uM incubated for 60 mins by TopCount scintillation counting method relative to control
Sequence of Mu-type opioid receptor (Homo sapiens) (P35372 whole entry): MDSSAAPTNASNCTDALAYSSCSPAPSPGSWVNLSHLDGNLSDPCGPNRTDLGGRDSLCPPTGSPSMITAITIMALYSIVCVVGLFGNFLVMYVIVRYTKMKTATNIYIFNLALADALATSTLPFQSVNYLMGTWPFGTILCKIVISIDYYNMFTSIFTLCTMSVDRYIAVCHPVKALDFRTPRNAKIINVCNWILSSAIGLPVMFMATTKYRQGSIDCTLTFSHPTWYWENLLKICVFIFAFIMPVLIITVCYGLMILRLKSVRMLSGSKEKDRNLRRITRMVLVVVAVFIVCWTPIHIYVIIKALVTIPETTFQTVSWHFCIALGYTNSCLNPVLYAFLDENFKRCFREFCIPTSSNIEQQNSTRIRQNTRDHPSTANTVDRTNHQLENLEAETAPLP

Row | Activity [1] [%] | Activity [2] | Activity [3] [%] | Activity [4] | Activity [5] [%] | Compound
1 | 24.5 | inactive | 48.8 | inactive | 64.5 | CO[C@@H]1Oc2ccccc2-c2c1oc1cc(O)c(C)c(O)c1c2=O
2 | 15.2 | inactive | 38.9 | inactive | 45.9 | COc1c(C)c(O)c2c(c1C)O[C@H]1COc3c(O)cccc3[C@]1(O)C2=O
3 | 12.3 | inactive | 30.5 | 5.4% | 58.6 | COc1cc2c(c(O)c1C)C(=O)[C@@]1(O)c3cccc(OC)c3O[C@@H](OC)[C@@H]1O2
4 | 31.6 | 17% | 41.8 | inactive | 55.3 | COc1c(C)c(O)c2c(c1C)O[C@H]1[C@H](OC)Oc3c(O)cccc3[C@]1(O)C2=O
5 | 20.1 | 42.2% | 28.9 | 7.4% | 39.6 | COc1cc2c(c(O)c1C)C(=O)[C@@]1(O)c3cccc(O)c3O[C@@H](OC)[C@@H]1O2
6 | 26.3 | inactive | 21.8 | inactive | 50.9 | COc1cc2c(c(O)c1C)C(=O)[C@@]1(O)c3cccc(O)c3OC[C@@H]1O2
